Experimental data: US11578130B2, “Regulatable chimeric antigen receptor” (Novartis AG, priority 2013, dated 2023)
Where two headings read alike, the source gives them in different places.

Key:
[1] = test system: A/H1N1/California/07/2009 influenza; assay: Serum anti-influenza IgG and IgM levels before and 4 weeks post influenza vaccination; format: in vivo, human; conditions: RAD001 versus placebo cohorts, Kruskal-Wallis rank sum test
Procedure: FIGS. 30A and 30B are graphic representations of IgG and IgM levels before and after influenza vaccination. Levels of anti-A/H1N1/California/07/2009 influenza IgG and IgM were measured in serum obtained from subjects before and 4 weeks post influenza vaccination.

[2] = test system: JNL cells; assay: Single vector CD19 RCAR constructs in JNL cells, NFAT reporter activation by dimerization molecule; format: cell-based; conditions: nM to sub-nM doses
Source text: The constructs and viral particles were made and tested essentially as described in Example 11. Viral particles were introduced into JNL cells and evaluated for activity essentially as described in Example 1 except that the target was CD19 (as opposed to EGFRviii).
Construct 143775 was introduced into cells and the affect of dimerization molecule concentration on activation evaluated essentially as described in Example 14.

[3] = Clinical trial in elderly volunteers: adverse events, safety and tolerability; format: in vivo, human; conditions: for Blood cholesterol increased, treatment-related AE / Conjunctivitis, treatment-related AE / Diarrhea, treatment-related AE / Dry mouth, treatment-related AE / Dyspepsia, treatment-related AE / Erythema, treatment-related AE / Fatigue, treatment-related AE / Headache, treatment-related AE / Insomnia, treatment-related AE / Limb discomfort, treatment-related AE / Low density lipoprotein increased, treatment-related AE / Mouth ulceration, treatment-related AE / Mucosal inflammation, treatment-related AE / Neutropenia, treatment-related AE / Oral pain, treatment-related AE / Paresthesia oral, treatment-related AE / Patients with AE(s), treatment-related / Pruritus, treatment-related AE / Stomatitis, treatment-related AE / Thrombocytopenia, treatment-related AE / Tongue ulceration, treatment-related AE / Total AE(s), treatment-related / Urinary tract infection, treatment-related AE: N = 53
[4] = test system: A/H3N2 strain A/Victoria/361/11; assay: Clinical trial: HI titers and seroconversion, heterologous A/H3N2 strain; format: in vivo, human
[5] = test system: PD-1 positive CD4 and CD8 T cells; assay: Clinical trial: immunophenotyping of PBMC by flow cytometry; format: in vivo, human
[6] = Clinical trial: RAD001 trough levels in blood; format: in vivo, human
[7] = Clinical trial: energy and exercise questionnaires one year after dosing; format: in vivo, human; conditions: 0.5 mg daily dosing cohort
[8] = test system: Jurkat cells with NFAT-LUC reporter (JNL); assay: Activation of RCAR half switches (intracellular FKBP/FRB) by RAD001, NFAT luciferase; format: cell-based; conditions: RCAR half switches with CD27, CD28, ICOS, OX40 or 41BB costimulatory domain; RAD001 50 nM
Procedure: Jurkat cells with NFAT-LUC reporter (JNL) were grown to the density of 0.5×10^6/ml in Jurkat cell growth media with puromycin at 0.5 μg/ml. For each transfection 2.5×10^6 cells were spin down at 100 g for 10 minutes. Two μg of DNA per construct were used per transfection. Amaxa Nucleofector solution V and supplement I was mixed and 100 μl was added into the tube with DNA construct. The mixture was then added to the cells and transferred to the electroporation cuvette. Electroporation was done under setting X-001 using Amaxa Nucleofector II Device. 0.5 ml of growth media was added immediately after electroporation and the mixture were transferred into 2 ml growth media in one well of the 6-well plate.
After one hour, RAD001 compound was delivered at 50 nM when testing RCARs with different costimulatory signaling domains (FIGS. 44A and 44B), or various concentrations: 0 nM, 0.01 nM, 0.03 nM, 0.1 nM, 0.3 nM, 1 nM, 3 nM, and 10 nM (FIGS. 45A and 45B). Tissue culture plate was coated with 5 μg/ml of anti anti-CD19 antibody or isotype control for 2 hrs, blocked with the blocking buffer (DPBS with 5% serum) for 1 hour. The transfected cells with or without RAD001 were resuspended and added to the target plate with 100 μl per well and incubated for 18 hrs. […] The samples were incubated for 5 min at 37° C. and then luminescence is measured using Envision plate reader.

[9] = cited from earlier work

CO[C@H]1C[C@@H]2CC[C@@H](C)[C@@](O)(O2)C(=O)C(=O)N2CCCC[C@H]2C(=O)O[C@H]([C@H](C)C[C@@H]2CC[C@@H](OCCO)[C@H](OC)C2)CC(=O)[C@H](C)/C=C(\C)[C@@H](O)[C@@H](OC)C(=O)[C@H](C)C[C@H](C)/C=C/C=C/C=C/1C [RAD001, (1R,9S,12S,15R,16E,18R,19R,21R,23S,24E,26E,28E,30S,32S,35R)-1,18-dihydroxy-12-{(1R)-2-[(1S,3R,4R)-4-(2-hydroxyethoxy)-3-methoxycyclohexyl]-1-methylethyl}-19,30-dimethoxy-15,17,21,23,29,35-hexamethyl-11,36-dioxa-4-aza-tricyclo[30.3.1.04,9]hexatriaconta-16,24,26,28-tetraene-2,3,10,14,20-pentaone]
change from baseline to 4 weeks post vaccination in anti-H1N1 influenza IgG levels [1]: No significant difference | change from baseline to 4 weeks post vaccination in anti-H1N1 influenza IgM levels [1]: No significant difference | activation of RCAR (Construct 143775) over dimerization molecule concentration [2]: effective at a broad range of concentrations | Blood cholesterol increased, treatment-related AE ([3]; RAD001 0.5 mg daily): 2 (3.8%) n (%) | Conjunctivitis, treatment-related AE ([3]; RAD001 0.5 mg daily): 0 n (%) | Diarrhea, treatment-related AE ([3]; RAD001 0.5 mg daily): 1 (1.9%) n (%) | Dry mouth, treatment-related AE ([3]; RAD001 0.5 mg daily): 0 n (%) | Dyspepsia, treatment-related AE ([3]; RAD001 0.5 mg daily): 0 n (%) | Erythema, treatment-related AE ([3]; RAD001 0.5 mg daily): 0 n (%) | Fatigue, treatment-related AE ([3]; RAD001 0.5 mg daily): 0 n (%) | Headache, treatment-related AE ([3]; RAD001 0.5 mg daily): 0 n (%) | Insomnia, treatment-related AE ([3]; RAD001 0.5 mg daily): 1 (1.9%) n (%) | Limb discomfort, treatment-related AE ([3]; RAD001 0.5 mg daily): 0 n (%) | Low density lipoprotein increased, treatment-related AE ([3]; RAD001 0.5 mg daily): 2 (3.8%) n (%) | Mouth ulceration, treatment-related AE ([3]; RAD001 0.5 mg daily): 6 (11.3%) n (%) | Mucosal inflammation, treatment-related AE ([3]; RAD001 0.5 mg daily): 0 n (%) | Neutropenia, treatment-related AE ([3]; RAD001 0.5 mg daily): 0 n (%) | Oral pain, treatment-related AE ([3]; RAD001 0.5 mg daily): 0 n (%) | Paresthesia oral, treatment-related AE ([3]; RAD001 0.5 mg daily): 2 (3.8%) n (%) | Patients with AE(s), treatment-related ([3]; RAD001 0.5 mg daily): 22 (41.5%) n (%) | Pruritus, treatment-related AE ([3]; RAD001 0.5 mg daily): 0 n (%) | Stomatitis, treatment-related AE ([3]; RAD001 0.5 mg daily): 0 n (%) | Thrombocytopenia, treatment-related AE ([3]; RAD001 0.5 mg daily): 0 n (%) | Tongue ulceration, treatment-related AE ([3]; RAD001 0.5 mg daily): 3 (5.7%) n (%) | Total AE(s), treatment-related ([3]; RAD001 0.5 mg daily): 35 n (%) | Urinary tract infection, treatment-related AE ([3]; RAD001 0.5 mg daily): 0 n (%) | Blood cholesterol increased, treatment-related AE ([3]; RAD001 5 mg weekly): 2 (3.8%) n (%) | Conjunctivitis, treatment-related AE ([3]; RAD001 5 mg weekly): 2 (3.8%) n (%) | Diarrhea, treatment-related AE ([3]; RAD001 5 mg weekly): 4 (7.5%) n (%) | Dry mouth, treatment-related AE ([3]; RAD001 5 mg weekly): 0 n (%) | Dyspepsia, treatment-related AE ([3]; RAD001 5 mg weekly): 3 (5.7%) n (%) | Erythema, treatment-related AE ([3]; RAD001 5 mg weekly): 2 (3.8%) n (%) | Fatigue, treatment-related AE ([3]; RAD001 5 mg weekly): 2 (3.8%) n (%) | Headache, treatment-related AE ([3]; RAD001 5 mg weekly): 2 (3.8%) n (%) | Insomnia, treatment-related AE ([3]; RAD001 5 mg weekly): 2 (3.8%) n (%) | Limb discomfort, treatment-related AE ([3]; RAD001 5 mg weekly): 2 (3.8%) n (%) | Low density lipoprotein increased, treatment-related AE ([3]; RAD001 5 mg weekly): 1 (1.9%) n (%) | Mouth ulceration, treatment-related AE ([3]; RAD001 5 mg weekly): 2 (3.8%) n (%) | Mucosal inflammation, treatment-related AE ([3]; RAD001 5 mg weekly): 0 n (%) | Neutropenia, treatment-related AE ([3]; RAD001 5 mg weekly): 0 n (%) | Oral pain, treatment-related AE ([3]; RAD001 5 mg weekly): 2 (3.8%) n (%) | Paresthesia oral, treatment-related AE ([3]; RAD001 5 mg weekly): 0 n (%) | Patients with AE(s), treatment-related ([3]; RAD001 5 mg weekly): 20 (37.7%) n (%) | Pruritus, treatment-related AE ([3]; RAD001 5 mg weekly): 2 (3.8%) n (%) | Stomatitis, treatment-related AE ([3]; RAD001 5 mg weekly): 0 n (%) | Thrombocytopenia, treatment-related AE ([3]; RAD001 5 mg weekly): 0 n (%) | Tongue ulceration, treatment-related AE ([3]; RAD001 5 mg weekly): 1 (1.9%) n (%) | Total AE(s), treatment-related ([3]; RAD001 5 mg weekly): 46 n (%) | Urinary tract infection, treatment-related AE ([3]; RAD001 5 mg weekly): 0 n (%) | Blood cholesterol increased, treatment-related AE ([3]; RAD001 20 mg weekly): 2 (3.8%) n (%) | Conjunctivitis, treatment-related AE ([3]; RAD001 20 mg weekly): 0 n (%) | Diarrhea, treatment-related AE ([3]; RAD001 20 mg weekly): 1 (1.9%) n (%) | Dry mouth, treatment-related AE ([3]; RAD001 20 mg weekly): 2 (3.8%) n (%) | Dyspepsia, treatment-related AE ([3]; RAD001 20 mg weekly): 2 (3.8%) n (%) | Erythema, treatment-related AE ([3]; RAD001 20 mg weekly): 0 n (%) | Fatigue, treatment-related AE ([3]; RAD001 20 mg weekly): 4 (7.5%) n (%) | Headache, treatment-related AE ([3]; RAD001 20 mg weekly): 9 (17.0%) n (%) | Insomnia, treatment-related AE ([3]; RAD001 20 mg weekly): 1 (1.9%) n (%) | Limb discomfort, treatment-related AE ([3]; RAD001 20 mg weekly): 0 n (%) | Low density lipoprotein increased, treatment-related AE ([3]; RAD001 20 mg weekly): 2 (3.8%) n (%) | Mouth ulceration, treatment-related AE ([3]; RAD001 20 mg weekly): 9 (17.0%) n (%) | Mucosal inflammation, treatment-related AE ([3]; RAD001 20 mg weekly): 2 (3.8%) n (%) | Neutropenia, treatment-related AE ([3]; RAD001 20 mg weekly): 3 (5.7%) n (%) | Oral pain, treatment-related AE ([3]; RAD001 20 mg weekly): 1 (1.9%) n (%) | Paresthesia oral, treatment-related AE ([3]; RAD001 20 mg weekly): 0 n (%) | Patients with AE(s), treatment-related ([3]; RAD001 20 mg weekly): 27 (50.9%) n (%) | Pruritus, treatment-related AE ([3]; RAD001 20 mg weekly): 1 (1.9%) n (%) | Stomatitis, treatment-related AE ([3]; RAD001 20 mg weekly): 2 (3.8%) n (%) | Thrombocytopenia, treatment-related AE ([3]; RAD001 20 mg weekly): 2 (3.8%) n (%) | Tongue ulceration, treatment-related AE ([3]; RAD001 20 mg weekly): 0 n (%) | Total AE(s), treatment-related ([3]; RAD001 20 mg weekly): 109 n (%) | Urinary tract infection, treatment-related AE ([3]; RAD001 20 mg weekly): 2 (3.8%) n (%) | tolerability ([3]; elderly volunteers, 6 weeks, particularly 0.5 mg daily and 5 mg weekly dosing regimens): well tolerated | number of severe AEs assessed as related to RAD001 (mouth ulcers) ([3]; subject treated with 20 mg weekly RAD001): one | Percentage of subjects who seroconvert to heterologous strain 4 weeks after seasonal influenza vaccination, A/H3N2 strain: A/Victoria/361/11 ([4]; RAD001 0.5 mg daily): 38% | Percentage of subjects who seroconvert to heterologous strain 4 weeks after seasonal influenza vaccination, A/H3N2 strain: A/Victoria/361/11 ([4]; RAD001 5 mg weekly, * p-value < 0.05 versus placebo): 39%* | Percentage of subjects who seroconvert to heterologous strain 4 weeks after seasonal influenza vaccination, A/H3N2 strain: A/Victoria/361/11 ([4]; RAD001 20 mg weekly, * p-value < 0.05 versus placebo): 40%* | increase in the HI GMT ratios for the heterologous strain ([4]; RAD001 as compared to placebo cohorts): higher | H3N2 seroconversion rate, heterologous strain ([4]; pooled RAD001 cohorts, versus 20% placebo (p=0.007)): 39% | percentage of PD-1 negative CD4 T cells ([5]; RAD001 cohorts as compared to the placebo cohorts): increased | percentage of CD4 PD-1 positive T cells ([5]; week 6 and 12, all RAD001 cohorts): decreased from baseline | percentage of CD8 PD-1 positive cells ([5]; week 6 and 12, the two lower dose RAD001 cohorts): decreased from baseline | average RAD001 trough level ([6]; 5 mg weekly, 0.3 ng/ml is the lower limit of quantification): below detection limits | trough level of study regimens relative to approved regimens, fold lower ([6]; dosing regimens used in the immunization study): 3-20 fold | self-reported energy and exercise ability compared to placebo [7]: increased energy and exercise ability | target-dependent NFAT activity [8]: all able to activate the target-dependent NFAT activity | trough level of RAD001 ([9]; 10 mg daily oncology dosing regimen): approximately 20 ng/ml | trough level of RAD001 ([9]; 0.75-1.5 mg bid transplant dosing regimen): approximately 3 ng/ml
